Earlier results on 1 compound are cited in US10765664B2, “Treatment of infectious diseases” (CHILDREN'S MEDICAL CENTER CORPORATION, priority 2015, dated 2020).

In this series the test system is nonreplicating MTb. Particulars: extremely high inocula; cited from earlier work.

The structures appear in SMILES notation.

Regarding `CC(=O)Oc1ccccc1C(=O)Nc1ncc([N+](=O)[O-])s1` [NTZ, [2-[(5-nitro-1,3-thiazol-2-yl)carbamoyl]phenyl] ethanoate], the resistance mutants result is given as “no evidence of resistance mutants”.
